Patent US8435990B2, “Dihydropyrimidone amides as P2X7 modulators” (Roche Palo Alto LLC, priority 2009, dated 2013)

Target: T1, human P2X7 (Homo sapiens, UniProt Q99572)
T1 construct: 1321N1 cells stably expressing the full length human P2X7 gene (1321N1-hP2X7)
T1 sequence (Q99572 1-595): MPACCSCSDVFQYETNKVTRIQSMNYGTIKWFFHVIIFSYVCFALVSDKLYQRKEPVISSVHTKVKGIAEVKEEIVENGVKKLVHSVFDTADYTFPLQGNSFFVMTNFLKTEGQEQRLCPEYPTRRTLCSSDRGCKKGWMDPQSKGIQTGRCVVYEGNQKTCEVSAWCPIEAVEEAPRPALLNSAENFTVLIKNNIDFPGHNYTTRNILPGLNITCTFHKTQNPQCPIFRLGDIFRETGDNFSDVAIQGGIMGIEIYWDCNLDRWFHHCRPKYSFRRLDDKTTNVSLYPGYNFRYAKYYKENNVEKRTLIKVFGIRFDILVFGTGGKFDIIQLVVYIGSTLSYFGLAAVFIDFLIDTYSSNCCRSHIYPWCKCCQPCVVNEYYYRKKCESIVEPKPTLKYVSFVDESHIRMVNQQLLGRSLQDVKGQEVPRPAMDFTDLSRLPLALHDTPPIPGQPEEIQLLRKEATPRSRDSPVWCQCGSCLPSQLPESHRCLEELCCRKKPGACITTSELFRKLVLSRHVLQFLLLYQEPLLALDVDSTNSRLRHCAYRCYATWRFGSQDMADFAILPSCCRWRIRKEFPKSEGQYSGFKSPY
Experiment: P2X7 modulator pIC50 of Table 1 (assay not given; Intracellular Calcium Flux (FLIPR) Assay assumed)
Format: cell-based
Protocol: Intracellular Calcium Flux (FLIPR) Assay
Stock solutions of compounds were prepared from powders as a 10 mM DMSO stock solution. These solutions were stored at RT during the two week period of these experiments to prevent freeze-thaw of the DMSO stocks. The DMSO stocks were added to the appropriate assay buffer at a concentration of 10 μM, and then diluted serially to the final concentrations that were tested. No observable precipitate was formed at any time during this process. The aqueous solutions of compounds as well as ATP (Sigma A7699) and BzATP (Sigma B6396) were prepared fresh for each day of experiment.
1321N1 cells stably expressing the full length human P2X7 gene (1321N1-hP2X7) and HEK293 cells stably expressing the full length rat P2X7 gene (HEK293-rP2X7) were obtained from the Roche Cell Culture Facility. 1321N1-hP2X7 cells were grown in Dulbecco's Modified Eagle's Medium (DMEM) high glucose supplemented with 10% FBS and 250 μg/mL G418. HEK293-rP2X7 cells were grown in DMEM/F-12 supplemented with 10% FBS, 1 mM CaCl2, 2 mM MgCl2, 2 mM L-Glutamine and 500 μg/ml G418. Cells were split such that they never became >70% confluent.
On the day prior to the experiment, 1321N1-hP2X7 or HEK293-rP2X7 cells were released into suspension with calcium-free PBS+Versene and washed by centrifugation with calcium-free PBS to remove the Versene. Cells were resuspended in growth medium at a density of 2.5×10^5 cells/mL and seeded into black walled, clear bottom 96 well plates (50,000 cells/well) approximately 18 hr prior to intracellular calcium flux experiments.
On the day of the experiment, plates were washed with FLIPR buffer (calcium- and magnesium-free Hank's Balanced Salt Solution (HBSS) supplemented with 10 mM Hepes, 2.5 mM probenecid and 2 mM calcium chloride) using a BIO-TEK 96 channel plate washer and incubated with […] fluo-3 dye at 37° C. for one hr. The dye was then removed by plate washing and the cells were allowed to equilibrate for 20 min at room temperature with antagonist or vehicle (FLIPR buffer). Agonist (100 μM BzATP final concentration for hP2X7; 5μM BzATP final concentration or rP2X7) was added online with the FLIPR and fluorescence measurements made at 1 sec intervals for 60 sec followed by 3 sec intervals for a further 4 min (5 min total). A final addition of 5 μM ionomycin was made and the maximal BzATP-evoked fluorescence normalized to the maximal ionomycin-evoked fluorescence.

| Structure (SMILES) | IC50 |
| --- | --- |
| CCn1nccc(-c2ccc(C)c(NC(=O)C3=CN(C)C(=O)N[C@H]3c3ccc(F)cc3)c2)c1=O [Compound 38, (S)-4-(4-Fluoro-phenyl)-1-methyl-2-oxo-1,2,3,4-tetrahydro-pyrimidine-5-carboxylic acid [5-(2-ethyl-3-oxo-2,3-dihydro-pyridazin-4-yl)-2-methyl-phenyl]-amide] | 14.3 nM |
| Cc1ccc(-n2ncc(=O)n(C)c2=O)cc1NC(=O)C1=CN(C)C(=O)N[C@H]1c1cccc(F)c1 [Compound 37, (S)-4-(3-Fluoro-phenyl)-1-methyl-2-oxo-1,2,3,4-tetrahydro-pyrimidine-5-carboxylic acid [2-methyl-5-(4-methyl-3,5-dioxo-4,5-dihydro-3H-[1,2,4]triazin-2-yl)-phenyl]-amide] | 36.3 nM |
| Cc1cc(Cl)c(OCCO)cc1NC(=O)C1=CN(C)C(=O)N[C@@H]1C1CCCCC1 [Compound 29, (R)-4-Cyclohexyl-1-methyl-2-oxo-1,2,3,4-tetrahydro-pyrimidine-5-carboxylic acid [4-chloro-5-(2-hydroxy-ethoxy)-2-methyl-phenyl]-amide] | 54.7 nM |
| Cc1cc(-c2ccc(C)c(NC(=O)C3=CN(C)C(=O)N[C@H]3c3cccc(F)c3)c2)n[nH]1 [Compound 33, (S)-4-(3-Fluoro-phenyl)-1-methyl-2-oxo-1,2,3,4-tetrahydro-pyrimidine-5-carboxylic acid [2-methyl-5-(5-methyl-1H-pyrazol-3-yl)-phenyl]-amide] | 107 nM |
| Cc1ccc(-c2cncc(=O)[nH]2)cc1NC(=O)C1=CN(C)C(=O)N[C@H]1c1ccc(F)cc1 [Compound 28, (S)-4-(4-Fluoro-phenyl)-1-methyl-2-oxo-1,2,3,4-tetrahydro-pyrimidine-5-carboxylic acid [2-methyl-5-(6-oxo-1,6-dihydro-pyrazin-2-yl)-phenyl]-amide] | 153 nM |
| COc1cc(C)c(NC(=O)C2=CNC(=O)N[C@@H]2c2ccc(F)cc2)cc1OC [Compound 10, (R)-4-(4-Fluoro-phenyl)-2-oxo-1,2,3,4-tetrahydro-pyrimidine-5-carboxylic acid (4,5-dimethoxy-2-methyl-phenyl)-amide] | 359 nM |
| CCN1C=C(C(=O)Nc2cc(OCCO)c(Cl)cc2C)[C@H](c2ccc(F)cc2)NC1=O [Compound 17, (S)-1-Ethyl-4-(4-fluoro-phenyl)-2-oxo-1,2,3,4-tetrahydro-pyrimidine-5-carboxylic acid [4-chloro-5-(2-hydroxy-ethoxy)-2-methyl-phenyl]-amide] | 24 nM |
| Cc1ccc(-c2ccc(=O)[nH]n2)cc1NC(=O)C1=CN(C)C(=O)N[C@H]1c1ccc(F)cc1 [Compound 41, (S)-4-(4-Fluoro-phenyl)-1-methyl-2-oxo-1,2,3,4-tetrahydro-pyrimidine-5-carboxylic acid [2-methyl-5-(6-oxo-1,6-dihydro-pyridazin-3-yl)-phenyl]-amide] | 29.2 nM |
| Cc1ccc2ncccc2c1NC(=O)C1=CN(C)C(=O)N[C@H]1c1ccc(F)cc1 [Compound 11, (S)-4-(4-Fluoro-phenyl)-1-methyl-2-oxo-1,2,3,4-tetrahydro-pyrimidine-5-carboxylic acid (6-methyl-quinolin-5-yl)-amide] | 120 nM |
| Cc1cnn(-c2ccc(C)c(NC(=O)C3=CN(C)C(=O)N[C@H]3c3ccc(F)cc3)c2)c1 [Compound 15, (S)-4-(4-Fluoro-phenyl)-1-methyl-2-oxo-1,2,3,4-tetrahydro-pyrimidine-5-carboxylic acid [2-methyl-5-(4-methyl-pyrazol-1-yl)-phenyl]-amide] | 14.1 nM |
| Cc1cc(F)c(OCCO)cc1NC(=O)C1=CN(C)C(=O)N[C@H]1c1ccc(F)cc1 [Compound 16, (S)-4-(4-Fluoro-phenyl)-1-methyl-2-oxo-1,2,3,4-tetrahydro-pyrimidine-5-carboxylic acid [4-fluoro-5-(2-hydroxy-ethoxy)-2-methyl-phenyl]-amide] | 9.23 nM |
| Cc1cc(-c2ccc(C)c(NC(=O)C3=CN(C)C(=O)NC3c3cccc(F)c3)c2)n[nH]1 (stereo not drawn) [Compound 14, 4-(3-Fluoro-phenyl)-1-methyl-2-oxo-1,2,3,4-tetrahydro-pyrimidine-5-carboxylic acid [2-methyl-5-(5-methyl-1H-pyrazol-3-yl)-phenyl]-amide] | 57.9 nM |
| Cc1ccc(-c2ccn[nH]c2=O)cc1NC(=O)C1=CN(C)C(=O)N[C@H]1c1ccc(F)cc1 [Compound 32, (S)-4-(4-Fluoro-phenyl)-1-methyl-2-oxo-1,2,3,4-tetrahydro-pyrimidine-5-carboxylic acid [2-methyl-5-(3-oxo-2,3-dihydro-pyridazin-4-yl)-phenyl]-amide] | 21.1 nM |

Second part, the compound after the results:

| IC50 | Structure (SMILES) |
| --- | --- |
| 63.1 nM | CN1C=C(C(=O)Nc2cccc3c(=O)n(C)ccc23)[C@H](c2ccc(F)cc2)NC1=O [Compound 51, (S)-4-(4-Fluoro-phenyl)-1-methyl-2-oxo-1,2,3,4-tetrahydro-pyrimidine-5-carboxylic acid (2-methyl-1-oxo-1,2-dihydro-isoquinolin-5-yl)-amide] |
| 16.6 nM | CCn1c(=O)cnn(-c2ccc(C)c(NC(=O)C3=CN(C)C(=O)N[C@H]3c3ccc(F)cc3)c2)c1=O [Compound 64, (S)-4-(4-Fluoro-phenyl)-1-methyl-2-oxo-1,2,3,4-tetrahydro-pyrimidine-5-carboxylic acid [5-(4-ethyl-3,5-dioxo-4,5-dihydro-3H-[1,2,4]triazin-2-yl)-2-methyl-phenyl]-amide] |
| 40.7 nM | COC[C@H](O)Cn1nc(-c2ccc(C)c(NC(=O)C3=CN(C)C(=O)N[C@H]3c3ccc(F)cc3)c2)ccc1=O [Compound 61, (S)-4-(4-Fluoro-phenyl)-1-methyl-2-oxo-1,2,3,4-tetrahydro-pyrimidine-5-carboxylic acid {5-[1-((R)-2-hydroxy-3-methoxy-propyl)-6-oxo-1,6-dihydro-pyridazin-3-yl]-2-methyl-phenyl}-amide] |
| 55 nM | Cc1ccc(-n2cccc(C)c2=O)cc1NC(=O)C1=CN(C)C(=O)N[C@H]1c1ccc(F)cc1 [Compound 50, (S)-4-(4-Fluoro-phenyl)-1-methyl-2-oxo-1,2,3,4-tetrahydro-pyrimidine-5-carboxylic acid [2-methyl-5-(3-methyl-2-oxo-2H-pyridin-1-yl)-phenyl]-amide] |
| 3160 nM | Cc1ccc(-n2c(=O)cc[nH]c2=O)cc1NC(=O)C1=CN(C)C(=O)N[C@H]1c1ccc(F)cc1 [Compound 56, (S)-4-(4-Fluoro-phenyl)-1-methyl-2-oxo-1,2,3,4-tetrahydro-pyrimidine-5-carboxylic acid [5-(2,6-dioxo-3,6-dihydro-2H-pyrimidin-1-yl)-2-methyl-phenyl]-amide] |
| 101 nM | CN1C=C(C(=O)Nc2cc(-n3ncccc3=O)ccc2F)[C@H](c2ccc(F)cc2)NC1=O [Compound 74, (S)-4-(4-Fluoro-phenyl)-1-methyl-2-oxo-1,2,3,4-tetrahydro-pyrimidine-5-carboxylic acid [2-fluoro-5-(6-oxo-6H-pyridazin-1-yl)-phenyl]-amide] |
| 51.9 nM | Cc1cc(Cl)c(-n2ncccc2=O)cc1NC(=O)C1=CN(C)C(=O)N[C@H]1c1ccc(F)cc1 [Compound 63, (S)-4-(4-Fluoro-phenyl)-1-methyl-2-oxo-1,2,3,4-tetrahydro-pyrimidine-5-carboxylic acid [4-chloro-2-methyl-5-(6-oxo-6H-pyridazin-1-yl)-phenyl]-amide] |
| 5.5 nM | Cc1ccc(-c2cccn(C)c2=O)cc1NC(=O)C1=CN(C)C(=O)N[C@H]1c1ccc(F)cc1 [Compound 60, (S)-4-(4-Fluoro-phenyl)-1-methyl-2-oxo-1,2,3,4-tetrahydro-pyrimidine-5-carboxylic acid [2-methyl-5-(1-methyl-2-oxo-1,2-dihydro-pyridin-3-yl)-phenyl]-amide] |
